Results from patent publication US4798827A, “Synergistin derivatives and pharmaceutical compositions which contain them” (Rhone-Poulenc Sante, priority 1986, dated 1989).
Numbered stars: 1 amine (or outer) side, 2 acyl side, 3 side chain; on linkers, the order of the positions; unused ones are H or OH. Bridge positions count the residues as written; N and C are the ends. Square brackets hold non-standard residues; d marks the D form. Peptide text beside a SMILES is read from it. * marks the point of attachment. X1 = O=C1C[C@@H](C(=O)[*:2])N([*:1])C[C@H]1CS[C@@H]1CN2CCC1CC2; NMePhe(4-NMe2) = CN[C@@H](Cc1ccc(N(C)C)cc1)C(=O)O; Picolinoyl(3-OH) = O=C(c1ncccc1O)*; Phg = N[C@H](C(=O)O)c1ccccc1; dAbu = CC[C@@H](N)C(=O)O

Assay: solubility in water (as salts / hydrochlorides)
Details: product with 0.1N hydrochloric acid and distilled water

## CC[C@H]1NC(=O)[C@@H](NC(=O)c2ncccc2O)[C@@H](C)OC(=O)[C@H](c2ccccc2)NC(=O)[C@@H]2CC(=O)[C@H](CS[C@@H]3CN4CCC3CC4)CN2C(=O)[C@H](Cc2ccc(N(C)C)cc2)N(C)C(=O)[C@@H]2CCCN2C1=O [Example 1, 5δ-[(3-Quinuclidinyl)thiomethyl]pristinamycin IA] ({Picolinoyl(3-OH)}-T[dAbu]P[NMePhe(4-NMe2)][X1][Phg]; ester 1-C)
  strength of aqueous solution obtained: 5%
